Assay results taken from PubChem BioAssay (NCI).
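Following 48 hours of exposure in 96-well plates, responses at five concentrations were used to interpolate endpoints linearly. The concentration for 50% growth inhibition is given as GI50. TGI marks complete inhibition of growth.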

What was measured:
Assay in all cases: DTP human tumour cell line panel, 48 h
OVCAR-5 ovarian = tested on: OVCAR-5 ovarian
LOX IMVI melanoma = tested on: LOX IMVI melanoma
DU-145 prostate = tested on: DU-145 prostate
UO-31 renal = tested on: UO-31 renal
SK-MEL-5 melanoma = tested on: SK-MEL-5 melanoma
NCI-H460 lung = tested on: NCI-H460 lung
EKVX NSCLC = tested on: EKVX NSCLC
MOLT-4 leukemia = tested on: MOLT-4 leukemia
IGROV1 ovarian = tested on: IGROV1 ovarian
MALME-3M melanoma = tested on: MALME-3M melanoma
SR leukemia = tested on: SR leukemia
MDA-MB-231 breast = tested on: MDA-MB-231 breast
TK-10 renal = tested on: TK-10 renal
NCI-H522 lung = tested on: NCI-H522 lung
SNB-19 CNS = tested on: SNB-19 CNS
BT-549 breast = tested on: BT-549 breast
PC-3 prostate = tested on: PC-3 prostate
RPMI-8226 leukemia = tested on: RPMI-8226 leukemia
K-562 leukemia = tested on: K-562 leukemia
A498 renal = tested on: A498 renal
MCF7 breast = tested on: MCF7 breast
OVCAR-8 ovarian = tested on: OVCAR-8 ovarian
HS 578T breast = tested on: HS 578T breast
SK-MEL-28 melanoma = tested on: SK-MEL-28 melanoma
HT29 colon = tested on: HT29 colon
SN12C renal = tested on: SN12C renal
HCT-15 colon = tested on: HCT-15 colon
SW-620 colon = tested on: SW-620 colon
KM12 colon = tested on: KM12 colon
UACC-62 melanoma = tested on: UACC-62 melanoma
SF-268 CNS = tested on: SF-268 CNS
CCRF-CEM leukemia = tested on: CCRF-CEM leukemia
T-47D breast = tested on: T-47D breast
ACHN renal = tested on: ACHN renal
SNB-75 CNS = tested on: SNB-75 CNS
HCC-2998 colon = tested on: HCC-2998 colon
SK-MEL-2 melanoma = tested on: SK-MEL-2 melanoma
U251 CNS = tested on: U251 CNS
NCI/ADR-RES ovarian = tested on: NCI/ADR-RES ovarian
HOP-62 NSCLC = tested on: HOP-62 NSCLC
OVCAR-3 ovarian = tested on: OVCAR-3 ovarian
HL-60(TB) leukemia = tested on: HL-60(TB) leukemia
SF-539 CNS = tested on: SF-539 CNS
786-0 renal = tested on: 786-0 renal
HCT-116 colon = tested on: HCT-116 colon
COLO 205 colon = tested on: COLO 205 colon
RXF 393 renal = tested on: RXF 393 renal
HOP-92 NSCLC = tested on: HOP-92 NSCLC
M14 melanoma = tested on: M14 melanoma
CAKI-1 renal = tested on: CAKI-1 renal
MDA-MB-435 = tested on: MDA-MB-435
SF-295 CNS = tested on: SF-295 CNS
SK-OV-3 ovarian = tested on: SK-OV-3 ovarian
NCI-H226 lung = tested on: NCI-H226 lung
A549 NSCLC = tested on: A549 NSCLC
UACC-257 melanoma = tested on: UACC-257 melanoma
OVCAR-4 ovarian = tested on: OVCAR-4 ovarian

c1ccc2c(NCCCN3CCOCC3)c3oc4ccccc4c3nc2c1
GI50 (OVCAR-5 ovarian): 1570 nM
TGI (OVCAR-5 ovarian): 7280 nM
GI50 (LOX IMVI melanoma): 568 nM
TGI (LOX IMVI melanoma): 3230 nM
GI50 (DU-145 prostate): 1550 nM
TGI (DU-145 prostate): 16200 nM
GI50 (UO-31 renal): 1730 nM
TGI (UO-31 renal): 11700 nM
GI50 (SK-MEL-5 melanoma): 1980 nM
TGI (SK-MEL-5 melanoma): 3990 nM
GI50 (NCI-H460 lung): 459 nM
TGI (NCI-H460 lung): 5960 nM
GI50 (EKVX NSCLC): 2540 nM
TGI (EKVX NSCLC): 13200 nM
GI50 (MOLT-4 leukemia): 476 nM
TGI (MOLT-4 leukemia): 38100 nM
GI50 (IGROV1 ovarian): 2260 nM
TGI (IGROV1 ovarian): 12000 nM
GI50 (MALME-3M melanoma): 1820 nM
TGI (MALME-3M melanoma): 3850 nM
GI50 (SR leukemia): 599 nM
TGI (SR leukemia): 10100 nM
GI50 (MDA-MB-231 breast): 1540 nM
TGI (MDA-MB-231 breast): 7140 nM
GI50 (TK-10 renal): 2550 nM
TGI (TK-10 renal): 9750 nM
GI50 (NCI-H522 lung): 1280 nM
TGI (NCI-H522 lung): 3150 nM
GI50 (SNB-19 CNS): 1870 nM
TGI (SNB-19 CNS): 13100 nM
GI50 (BT-549 breast): 2030 nM
TGI (BT-549 breast): 4750 nM
GI50 (PC-3 prostate): 1890 nM
TGI (PC-3 prostate): 7590 nM
GI50 (RPMI-8226 leukemia): 1720 nM
TGI (RPMI-8226 leukemia): 6280 nM
GI50 (K-562 leukemia): 649 nM
TGI (K-562 leukemia): > 100000 nM
GI50 (A498 renal): 2010 nM
TGI (A498 renal): 4410 nM
GI50 (MCF7 breast): 1020 nM
TGI (MCF7 breast): 5830 nM
GI50 (OVCAR-8 ovarian): 1170 nM
TGI (OVCAR-8 ovarian): 11200 nM
GI50 (HS 578T breast): 2080 nM
TGI (HS 578T breast): 6990 nM
GI50 (SK-MEL-28 melanoma): 1880 nM
TGI (SK-MEL-28 melanoma): 3790 nM
GI50 (HT29 colon): 566 nM
TGI (HT29 colon): 2330 nM
GI50 (SN12C renal): 1020 nM
TGI (SN12C renal): 11500 nM
GI50 (HCT-15 colon): 719 nM
TGI (HCT-15 colon): 12200 nM
GI50 (SW-620 colon): 509 nM
TGI (SW-620 colon): 10500 nM
GI50 (KM12 colon): 1460 nM
TGI (KM12 colon): 15300 nM
GI50 (UACC-62 melanoma): 2160 nM
TGI (UACC-62 melanoma): 5490 nM
GI50 (SF-268 CNS): 1250 nM
TGI (SF-268 CNS): 15500 nM
GI50 (CCRF-CEM leukemia): 1640 nM
TGI (CCRF-CEM leukemia): 15000 nM
GI50 (T-47D breast): 2610 nM
TGI (T-47D breast): 9770 nM
GI50 (ACHN renal): 577 nM
TGI (ACHN renal): 20100 nM
GI50 (SNB-75 CNS): 1310 nM
TGI (SNB-75 CNS): 2600 nM
GI50 (HCC-2998 colon): 1100 nM
TGI (HCC-2998 colon): 3720 nM
GI50 (SK-MEL-2 melanoma): 1730 nM
TGI (SK-MEL-2 melanoma): 3290 nM
GI50 (U251 CNS): 1490 nM
TGI (U251 CNS): 11000 nM
GI50 (NCI/ADR-RES ovarian): 692 nM
TGI (NCI/ADR-RES ovarian): 10900 nM
GI50 (HOP-62 NSCLC): 1670 nM
TGI (HOP-62 NSCLC): 8180 nM
GI50 (OVCAR-3 ovarian): 2410 nM
TGI (OVCAR-3 ovarian): 45400 nM
GI50 (HL-60(TB) leukemia): 2340 nM
TGI (HL-60(TB) leukemia): 8590 nM
GI50 (SF-539 CNS): 1500 nM
TGI (SF-539 CNS): 3460 nM
GI50 (786-0 renal): 1950 nM
TGI (786-0 renal): 14000 nM
GI50 (HCT-116 colon): 437 nM
TGI (HCT-116 colon): 11100 nM
GI50 (COLO 205 colon): 949 nM
TGI (COLO 205 colon): 2770 nM
GI50 (RXF 393 renal): 1290 nM
TGI (RXF 393 renal): 3220 nM
GI50 (HOP-92 NSCLC): 2100 nM
TGI (HOP-92 NSCLC): 5820 nM
GI50 (M14 melanoma): 1660 nM
TGI (M14 melanoma): 4110 nM
GI50 (CAKI-1 renal): 1100 nM
TGI (CAKI-1 renal): 11100 nM
GI50 (MDA-MB-435): 1260 nM
TGI (MDA-MB-435): 2610 nM
GI50 (SF-295 CNS): 1590 nM
TGI (SF-295 CNS): 10700 nM
GI50 (SK-OV-3 ovarian): 3140 nM
TGI (SK-OV-3 ovarian): 18600 nM
GI50 (NCI-H226 lung): 1930 nM
TGI (NCI-H226 lung): 5300 nM
GI50 (A549 NSCLC): 1580 nM
TGI (A549 NSCLC): 12600 nM
GI50 (UACC-257 melanoma): 1940 nM
TGI (UACC-257 melanoma): 4080 nM
GI50 (OVCAR-4 ovarian): 1240 nM
TGI (OVCAR-4 ovarian): 5140 nM
